One may read the IC50 as the midpoint of a concentration-inhibition curve.

This assay has as its target T1, His tagged recombinant human tissue transglutaminase (His6-rh-TG2) (Homo sapiens, UniProt P21980).
T1 construct: purchased Zedira T002
T1 sequence (P21980 1-687): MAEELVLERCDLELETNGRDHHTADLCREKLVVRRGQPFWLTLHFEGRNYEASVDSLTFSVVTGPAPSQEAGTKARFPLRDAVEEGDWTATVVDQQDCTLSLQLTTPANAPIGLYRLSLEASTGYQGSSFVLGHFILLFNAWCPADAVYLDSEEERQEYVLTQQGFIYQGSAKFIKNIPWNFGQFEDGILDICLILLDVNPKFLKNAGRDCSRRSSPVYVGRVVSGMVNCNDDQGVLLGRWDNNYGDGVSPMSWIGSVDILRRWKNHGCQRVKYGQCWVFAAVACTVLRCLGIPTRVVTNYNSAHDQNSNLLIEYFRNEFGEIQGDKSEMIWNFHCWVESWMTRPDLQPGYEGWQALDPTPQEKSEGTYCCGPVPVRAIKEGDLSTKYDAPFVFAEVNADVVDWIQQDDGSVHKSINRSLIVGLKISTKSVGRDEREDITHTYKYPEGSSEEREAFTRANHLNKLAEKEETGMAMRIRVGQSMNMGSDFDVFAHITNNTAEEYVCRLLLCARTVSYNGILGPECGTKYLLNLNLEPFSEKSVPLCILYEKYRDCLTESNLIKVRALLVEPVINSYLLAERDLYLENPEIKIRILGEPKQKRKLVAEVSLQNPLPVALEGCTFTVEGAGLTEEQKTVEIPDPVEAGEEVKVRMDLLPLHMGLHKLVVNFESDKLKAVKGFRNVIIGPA
Nature of the assay: Inactivation of human tissue transglutaminase, fluorescence assay with Abz-APE(CAD-DNP)QEA-OH. The note with it: substrate Abz-APE(CAD-DNP)QEA-OH, 37° C., pH=7.5. It counts as biochemical. The method, then:
General Method for Inactivation of Human Tissue Transglutaminase
250 μg lyophilized His tagged recombinant human tissue transglutaminase (His6-rh-TG2, Zedira product T002) are reconstituted by adding 150 μl water (resulting buffer 50 mM NaH2PO4, 150 mM NaCl, pH=8.0).
A 10 mM inhibitor stock solution in DMSO is prepared and is diluted with buffer (50 mM Tris-HCl, 10 mM CaCl2, 5 mM DTT, pH=7.5) each to the twentyfold of the concentration desired in the preparation (but at least 1/50 dilution resulting in a 2% DMSO concentration).
900 μl of an assay-solution consisting of 55.56 mM Tris, 11.11 mM CaCl2, 0.11% PEG8000, 5.56 mM DTT, 5.56 mM glycine methyl ester and 50 μM Abz-APE(CAD-DNP)QEA-OH, (Zedira product A102; patent No.: EP 1781807B1), pH=7.5 are added to a cuvette and heated in a measuring cell of a spectrophotometer to 37° C. 50 μl of the particular inhibitor solution are added to this solution (resulting in a concentration of less than 0.2% DMSO in the mixture).
7 μl of the transglutaminase solution reconstituted above are diluted with 51 μl buffer (50 mM Tris, 100 mM NaCl, 5 mM DTT, pH=7.5). 50 μl of this enzyme solution (10 μg His6-rhTG2) are added to the assay-solution containing the particular inhibitor concentration. It is incubated 5 min at 37° C. before measuring starts (λexc=313 nm and λem=418 nm, t=15 to 30 min).
The evaluation of the resulting enzyme activity is done using the slope of the straight line obtained by the increase in fluorescence.
To determine the non-inhibited enzyme activity, DMSO instead of inhibitor stock solution is used. IC50 values are determined by plotting the resulting enzyme activity against the logarithm of the inhibitor concentration. IC50 is defined as the concentration of inhibitor resulting in 50% of enzyme activity.
Regarding `CCOC(=O)/C=C/CC[C@H](NC(=O)OCc1ccccc1)C(=O)Nc1cccn(CC(=O)NCCc2c(C)cc(C)cc2C)c1=O` [A1, (S,E)-Ethyl 6-(benzyloxycarbonylamino)-7-oxo-7-(2-oxo-1-(2-oxo-2-(2,4,6-trimethylphenethylamino)ethyl)-1,2-dihydropyridin-3-ylamino)hept-2-enoate], the IC50 was 0.1 µM.
To `CCOC(=O)/C=C/CC[C@H](NC(=O)OCc1ccccc1)C(=O)Nc1ccc(C)n(CC(=O)NCCC(C)C)c1=O` [A2, (S,E)-Ethyl 6-(benzyloxycarbonylamino)-7-(1-(2-(isopentylamino)-2-oxoethyl)-6-methyl-2-oxo-1,2-dihydropyridin-3-ylamino)-7-oxohept-2-enoate] belongs 0.1 µM; to `CCOC(=O)/C=C/CC[C@H](NC(=O)OCc1ccccc1)C(=O)Nc1cccn(CC(=O)NCCC(C)C)c1=O` [A3, (S,E)-Ethyl 6-(benzyloxycarbonylamino)-7-(1-(2-(isopentylamino)-2-oxoethyl)-2-oxo-1,2-dihydropyridin-3-ylamino)-7-oxohept-2-enoate], 0.096 µM.
As for `CCOC(=O)/C=C/CC[C@H](NC(C)=O)C(=O)Nc1ccc(C)n(CC(=O)NCCC(C)C)c1=O` [A4, (S,E)-Ethyl 6-acetamido-7-(1-(2-(isopentylamino)-2-oxoethyl)-6-methyl-2-oxo-1,2-dihydropyridin-3-ylamino)-7-oxohept-2-enoate], the figure is 0.119 µM.
As for `CCOC(=O)/C=C/CC[C@H](NC(=O)OCc1ccccc1)C(=O)Nc1ccc(C)n(CC(=O)NC(CC(=O)O)CC(C)C)c1=O` (stereo partly drawn) [A5, 3-(2-(3-((S,E)-2-(Benzyloxycarbonylamino)-7-ethoxy-7-oxohept-5-enamido)-6-methyl-2-oxopyridin-1(2H)-yl)acetamido)-5-methylhexanoic acid], the figure is 0.13 µM.
Regarding `CC(=O)N[C@@H](CC/C=C/C(=O)OC(C)C)C(=O)Nc1cccn(CC(=O)NCCC(C)C)c1=O` [A6, (S,E)-isopropyl 6-acetamido-7-(1-(2-(isopentylamino)-2-oxoethyl)-2-oxo-1,2-dihydropyridin-3-ylamino)-7-oxohept-2-enoate], the IC50 came out at 0.532 µM.
To `CCOC(=O)/C=C/CC[C@H](NC(=O)c1cccnc1)C(=O)Nc1ccc(C)n(CC(=O)NCCc2ccccc2)c1=O` [A8, (S,E)-Ethyl 7-(6-methyl-2-oxo-1-(2-oxo-2-(phenethylamino)ethyl)-1,2-dihydropyridin-3-ylamino)-6-(nicotinamido)-7-oxohept-2-enoate] belongs 0.251 µM; to `CCOC(=O)/C=C/CC[C@H](NS(=O)(=O)Cc1ccc(Cl)cc1)C(=O)Nc1cccn(CC(=O)NCCC(C)C)c1=O` [A9, (S,E)-ethyl 6-((4-chlorophenyl)methylsulfonamido)-7-(1-(2-(isopentylamino)-2-oxoethyl)-2-oxo-1,2-dihydropyridin-3-ylamino)-7-oxohept-2-enoate], 0.708 µM.
With `CCOC(=O)/C=C/CC[C@H](NC(=O)c1ccccc1)C(=O)Nc1cccn(CC(=O)NCCC(C)C)c1=O` [A10, (S,E)-Ethyl 6-benzamido-7-(1-(2-(isopentylamino)-2-oxoethyl)-2-oxo-1,2-dihydropyridin-3-ylamino)-7-oxohept-2-enoate], the IC50 was determined as 0.073 µM.
For `CCOC(=O)/C=C/CC[C@H](NC(=O)c1ccoc1)C(=O)Nc1cccn(CC(=O)NCCC(C)C)c1=O` [A11, (S,E)-Ethyl 6-(furan-3-carboxamido)-7-(1-(2-(isopentylamino)-2-oxoethyl)-2-oxo-1,2-dihydropyridin-3-ylamino)-7-oxohept-2-enoate], the IC50 was 0.104 µM.
Regarding `CCOC(=O)/C=C/CC[C@H](NC(=O)c1ccsc1)C(=O)Nc1cccn(CC(=O)NCCC(C)C)c1=O` [A12, (S,E)-Ethyl 7-(1-(2-(isopentylamino)-2-oxoethyl)-2-oxo-1,2-dihydropyridin-3-ylamino)-7-oxo-6-(thiophene-3-carboxamido)hept-2-enoate], the IC50 came out at 0.084 µM.
As for `CCOC(=O)/C=C/CC[C@H](NS(=O)(=O)c1ccoc1)C(=O)Nc1cccn(CC(=O)NCCC(C)C)c1=O` [A13, (S,E)-Ethyl 6-(furan-3-sulfonamido)-7-(1-(2-(isopentylamino)-2-oxoethyl)-2-oxo-1,2-dihydropyridin-3-ylamino)-7-oxohept-2-enoate], the figure is 0.083 µM; as for `CCOC(=O)/C=C/CC[C@H](NC(=O)c1ccc(S(N)(=O)=O)cc1)C(=O)Nc1cccn(CC(=O)NCCC(C)C)c1=O` [A14, (S,E)-Ethyl 7-(1-(2-(isopentylamino)-2-oxoethyl)-2-oxo-1,2-dihydropyridin-3-ylamino)-7-oxo-6-(4-sulfamoylbenzamido)hept-2-enoate], 0.137 µM.
For `CCOC(=O)/C=C/CC[C@H](NC(=O)c1ncsc1C)C(=O)Nc1cccn(CC(=O)NCCC(C)C)c1=O` [A15, (S,E)-Ethyl 7-(1-(2-(isopentylamino)-2-oxoethyl)-2-oxo-1,2-dihydropyridin-3-ylamino)-6-(5-methylthiazole-4-carboxamido)-7-oxohept-2-enoate], the IC50 was found to be 0.092 µM.
Regarding `CCOC(=O)/C=C/CC[C@H](NC(=O)c1cccnc1)C(=O)Nc1cccn(CC(=O)NCCC(C)C)c1=O` [A16, (S,E)-Ethyl 7-(1-(2-(isopentylamino)-2-oxoethyl)-2-oxo-1,2-dihydropyridin-3-ylamino)-6-(nicotinamido)-7-oxohept-2-enoate], the IC50 worked out at 0.104 µM.
To `CCOC(=O)/C=C/CC[C@H](NC(=O)c1cc(C(F)(F)F)cc(C(F)(F)F)c1)C(=O)Nc1cccn(CC(=O)NCCC(C)C)c1=O` [A17, (S,E)-Ethyl 6-(3,5-bis(trifluoromethyl)benzamido)-7-(1-(2-(isopentylamino)-2-oxoethyl)-2-oxo-1,2-dihydropyridin-3-ylamino)-7-oxohept-2-enoate] belongs 0.063 µM; to `CCOC(=O)/C=C/CC[C@H](NC(=O)c1ccc(N2CCCCC2)cc1)C(=O)Nc1cccn(CC(=O)NCCC(C)C)c1=O` [A18, (S,E)-Ethyl 7-(1-(2-(isopentylamino)-2-oxoethyl)-2-oxo-1,2-dihydropyridin-3-ylamino)-7-oxo-6-(4-(piperidin-1-yl)benzamido)hept-2-enoate], 0.175 µM.
On to `CCOC(=O)/C=C/CC[C@H](NC(=O)c1ccc(N2CCN(C)CC2)cc1)C(=O)Nc1cccn(CC(=O)NCCC(C)C)c1=O` [A20, (S,E)-Ethyl 7-(1-(2-(isopentylamino)-2-oxoethyl)-2-oxo-1,2-dihydropyridin-3-ylamino)-6-(4-(4-methylpiperazin-1-yl)benzamido)-7-oxohept-2-enoate], for which the IC50 stood at 0.202 µM.
To `CCOC(=O)/C=C/CC[C@H](NC(=O)c1ccc2c(c1)OCCN2C)C(=O)Nc1cccn(CC(=O)NCCC(C)C)c1=O` [A21, (S,E)-Ethyl 7-(1-(2-(isopentylamino)-2-oxoethyl)-2-oxo-1,2-dihydropyridin-3-ylamino)-6-(4-methyl-3,4-dihydro-2H-benzo[b][1,4]oxazine-7-carboxamido)-7-oxohept-2-enoate] belongs 0.111 µM; to `CCOC(=O)/C=C/CC[C@H](NS(=O)(=O)c1ccccc1)C(=O)Nc1cccn(CC(=O)NCCC(C)C)c1=O` [A22, (S,E)-Ethyl 7-(1-(2-(isopentylamino)-2-oxoethyl)-2-oxo-1,2-dihydropyridin-3-ylamino)-7-oxo-6-(phenylsulfonamido)hept-2-enoate], 0.133 µM; to `CCOC(=O)/C=C/CC[C@H](NS(=O)(=O)c1ccc(O)c(C(=O)O)c1)C(=O)Nc1cccn(CC(=O)NCCC(C)C)c1=O` [A23, (S,E)-5-(N-(7-Ethoxy-1-(1-(2-(isopentylamino)-2-oxoethyl)-2-oxo-1,2-dihydropyridin-3-ylamino)-1,7-dioxohept-5-en-2-yl)sulfamoyl)-2-hydroxybenzoic acid], 0.475 µM.

For the origin of these results see patent US9434763B2, “Derivatives of pyridinone as inhibitors for tissue transglutaminase” (ZEDIRA GMBH, priority 2012, dated 2016).
